Legend:
TPH1 = molecular target: T1, TPH1 (Homo sapiens, UniProt P17752); assay: TPH1 enzyme inhibition, in vitro screening (BPS Bioscience kit, fluorescence); format: biochemical; settings: for inhibition at 1 µM / TPH1 Inhibition (% Inhibition at 1 µM): 1 µM compound; for inhibition at 10 µM: 10 µM compound (stated in the cell)
T1 construct: purchased BPS Bioscience
T1 sequence (P17752 1-444): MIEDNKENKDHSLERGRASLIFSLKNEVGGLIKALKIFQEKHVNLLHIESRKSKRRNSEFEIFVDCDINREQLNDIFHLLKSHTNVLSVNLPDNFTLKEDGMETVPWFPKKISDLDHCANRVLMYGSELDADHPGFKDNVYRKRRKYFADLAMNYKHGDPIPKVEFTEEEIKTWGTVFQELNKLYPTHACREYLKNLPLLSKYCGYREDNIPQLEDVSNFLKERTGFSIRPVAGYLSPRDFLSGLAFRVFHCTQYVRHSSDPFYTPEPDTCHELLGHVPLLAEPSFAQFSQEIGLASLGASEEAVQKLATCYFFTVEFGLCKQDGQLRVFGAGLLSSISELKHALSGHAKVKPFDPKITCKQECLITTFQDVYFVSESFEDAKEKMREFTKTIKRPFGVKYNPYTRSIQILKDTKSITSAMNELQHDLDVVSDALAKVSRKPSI
Procedure: Consequently, the core structure of thienopyrimidine tyrosine (derivative 6) was selected as the starting point for the synthesis, evaluating the structure-activity relationships (SAR), and optimization of TPH1 inhibitors. […]
In vitro screening was performed as described previously [PMID: 33417443]. Briefly, TPH1 enzyme activity was measured with a commercially available kit (BPS Bioscience). Compounds were dissolved in DMSO (Sigma). Then, 10 μL of the compound was dispensed into a 96-well microplate, and 40 μL of the TPH1 enzyme solution (320 ng enzyme/reaction) was added. Then, 50 μL of the TPH1 reaction solution was added, and the microplate was sealed with aluminum foil. The microplate was immediately cooled to 4 °C, gently shaken, and incubated for 4 h. After a defined time, 10 μL of the TPH1 quench solution was added. Then, the fluorescence was measured with a Flexstation3 microplate reader at 300 nm for excitation and 360 nm for emission. All experiments were performed in triplicate.

HFD-fed C57BL/6J mice = assay: In vivo efficacy test in high-fat diet fed mice; parameters: species or system mouse; settings: vs vehicle
Procedure: All animal study protocols were approved by the Institutional Animal Care and Use Committee at the Korea Advanced Institute of Science and Technology. Male C57BL/6J mice were purchased from SLC (Shizuoka, Japan) and acclimatized for a week. Mice were housed in a humidity and temperature-controlled environment under a 12 h light-dark cycle with ad libitum access to water and food. After acclimatization, male mice were fed a high-fat diet (HFD, 60% fat calories, Research diet; New Brunswick, NJ) and received daily treatment with TPH1 inhibitors. […] Compound 18i was dissolved in 5% dimethyl sulfoxide (DMSO) (Sigma, St. Louis, MO, USA) and 25% β-cyclodextrin (Sigma, St. Louis, MO, USA). Vehicle or compound 18i (100 mg kg^−1) was injected intraperitoneally in mice for 10 days after two weeks of HFD feeding. Both compounds 19 and 21 were prepared in 10% DMSO and 10% Kolliphor EL (Sigma, St. Louis, MO, USA). Vehicle and 100 mg kg^−1 of compound 19 or compound 21 were administered daily by intraperitoneal injection or oral feeding, respectively, concomitant to the initiation of HFD feeding. For analyzing blood glucose concentration, glucose in blood collected from the tail vein was measured after fasting mice for 16 h using a Gluco Dr. Top glucometer (Allemedicus, Anyang, Korea). Body weight was measured daily and mice were sacrificed for harvesting adipose tissue and liver.
Tissue samples were fixed in 10% formalin, embedded in paraffin, and cut into 5 μm thick sections, followed by deparaffinization and rehydration for H&E staining and UCP1 immunohistochemistry. After heat-induced antigen retrieval with a citrate buffer (pH 6.0) for 10 min at 95°C, tissue sections were incubated with BLOXALL Blocking solution (Vector Laboratories, Burlingame, CA, USA) to block endogenous peroxidase, followed by incubation with 2% normal goat serum in phosphate-buffered saline (PBS) for 30 min at room temperature to block nonspecific binding. Sections were incubated overnight with the anti-UCP1 primary antibody diluted 1:200 in 2% normal goat serum in PBS (Abcam, Cambridge, UK) at 4 °C, followed by 30 min incubation with biotinylated anti-rabbit IgG secondary antibody diluted 1:400 in PBS for 30 min at room temperature. After incubation with Vectastain […] reagent (Vector Laboratories) for 30 min, peroxidase activity was visualized with 3,3′-diaminobenzidine substrates (Vector Laboratories). For measuring average adipocyte size, we analyzed three random fields of H&E stained micrographs per adipose tissue sample from two representative mice of each group using AdipoCount software.
Fresh liver tissues were flash frozen in O.C.T. compound (Sakura Finetek, Torrance, CA, USA) and 10 μm cryostat sections were collected on glass slides. Sections were allowed to air-dry for 1 h, rinsed with PBS for 5 min, and washed with distilled water for 5 min. After washing, sections were placed in 30% isopropanol for 5 min, 60% isopropanol for 5 min twice, and then stained in Oil Red O solution (0.5% Oil red O (Sigma, St. Louis, MO, USA) dissolved in 60% isopropanol) for 15 min. The stained sections were rinsed twice with distilled water, mounted, coverslipped, and documented using bright field microscopy.

[1] = tested on: high-fat diet (HFD) fed mice; parameters: method as in PMID 25864946, PMID 25485911; settings: cited from earlier work
PAMPA-BBB permeability = format: in vitro ADME; settings: high permeation predicted > 4.0, low < 2.0, read-out: BBB Permeability Pe
From the text: Based on the in vitro data, compound 18i was selected for […] the in vitro BBB permeability. Several in vitro methods and computational models have been used in drug discovery to predict the potential of a drug to penetrate the BBB [15, 16, 17, 18, 19, 20, 21]. The parallel artificial membrane permeation assay (PAMPA) was used to evaluate the BBB permeability of the selected compounds. The PAMPA-BBB assay is advantageous because it predicts passive penetration at the blood-brain barrier with high success, high throughput, low cost, and high reproducibility.
PAMPA was conducted with a […] PAMPA sandwich (pION, Inc., Billerica, MA, USA) consisting of a 96-well filter plate (0.45 μm PVDF membrane) and a 96-well polystyrene donor plate. Test compounds were prepared in 10 mM stock solution with DMSO and diluted to a working solution of 50 μM concentration using a phosphate buffered saline (PBS) buffer. To form lipid membranes in the acceptor plate, 5 μL GIT-0 lipid (pION, Inc., Billerica, MA, USA) was dropped and semi-dried on the bottom side of the 0.45 μm PVDF membrane. The donor plate was prepared by the addition of 200 μL of working solution. […] To acquire the peak area of range from 230 to 500 nm, absorbance scans of PBS, acceptor, donor, and working solution were carried out with an Epoch ELISA reader (BioTek Instruments Inc., Winooski, VT, USA). […]

`N[C@@H](Cc1ccc(Oc2ncnc3c(Br)csc23)cc1)C(=O)O` [Compound 6] showed an inhibition at 100 µM (TPH1; 100 µM compound) of over 60%.
Compound `N[C@@H](Cc1ccc(Oc2ncnc3c(-c4ccc(O)cc4)csc23)cc1)C(=O)O` [Compound 9a] has an inhibition at 100 µM (TPH1; 100 µM compound) of 45%.
`N[C@@H](Cc1ccc(Oc2ncnc3c(-c4cccc(O)c4)csc23)cc1)C(=O)O` [Compound 9b] showed an inhibition at 100 µM (TPH1; 100 µM compound) of 82%.
`N[C@@H](Cc1ccc(Oc2ncnc3c(-c4ccc(OCc5ccccc5)cc4)csc23)cc1)C(=O)O` [Compound 11a] showed an inhibition at 100 µM (TPH1; 100 µM compound) of 58%.
For `N[C@@H](Cc1ccc(Oc2ncnc3c(-c4cccc(OCc5ccccc5)c4)csc23)cc1)C(=O)O` [Compound 11b], the inhibition at 100 µM (TPH1; 100 µM compound) was 94% and the “TPH1 Inhibition (% Inhibition at 100 µM)” value (TPH1; 100 µM compound, 100 µM) was 92%.
With `Nc1ncnc2c(-c3ccc(C[C@H](N)C(=O)O)cc3)csc12` [Compound 15a] the “TPH1 inhibitory activity (in words)” value (TPH1) was “weak activity” and the inhibition at 100 µM (TPH1; 100 µM compound) was 49%.
For `N[C@@H](Cc1ccc(-c2csc3c(O)ncnc23)cc1)C(=O)O` [Compound 15b], the “TPH1 inhibitory activity (in words)” value (TPH1) was “weak activity” and the inhibition at 100 µM (TPH1; 100 µM compound) was 33%.
`N[C@@H](Cc1ccc(-c2csc3c(NCc4ccc(-c5ccccc5)cc4)ncnc23)cc1)C(=O)O` [Compound 18a] gave an inhibition at 1 µM (TPH1) of 25% and an inhibition at 100 µM (TPH1; 100 µM compound) of 90%.
For `C[C@@H](Nc1ncnc2c(-c3ccc(C[C@H](N)C(=O)O)cc3)csc12)c1ccc2ccccc2c1` [Compound 18b], the inhibition at 1 µM (TPH1) was 10%.
With `Cl.N[C@@H](Cc1ccc(-c2csc3c(OC(c4ccccc4)C(F)(F)F)ncnc23)cc1)C(=O)O` (some centres unmarked) [Compound 18c] the “TPH1 inhibitory activity (in words)” value (TPH1) was “completely lost their activity” and the inhibition at 10 µM (TPH1) was 2.5%.
For `N[C@@H](Cc1ccc(-c2csc3c(OC(c4ccc(-c5ccccc5)cc4)C(F)(F)F)ncnc23)cc1)C(=O)O` (some centres unmarked) [Compound 18d], the “TPH1 inhibitory activity (in words)” value (TPH1) was “completely lost their activity” and the inhibition at 10 µM (TPH1) was 1.2%.
For `N[C@@H](Cc1ccc(-c2csc3c(OC(c4ccccc4-c4ccccc4)C(F)(F)F)ncnc23)cc1)C(=O)O` (some centres unmarked) [Compound 18e], the inhibition at 1 µM (TPH1) was 76%.
Compound `N[C@@H](Cc1ccc(-c2csc3c(OC(c4ccc(Cl)cc4-c4ccccc4)C(F)(F)F)ncnc23)cc1)C(=O)O` (some centres unmarked) [Compound 18f] has an inhibition at 1 µM (TPH1) of 41%.
Work on `N[C@@H](Cc1ccc(-c2csc3c(O[C@H](c4ccc(Cl)cc4-c4ccoc4)C(F)(F)F)ncnc23)cc1)C(=O)O` [Compound 18g] yielded an inhibition at 1 µM (TPH1) of 12%.
Work on `N[C@@H](Cc1ccc(-c2csc3c(O[C@H](c4ccc(Cl)cc4C4=CCCOC4)C(F)(F)F)ncnc23)cc1)C(=O)O` [Compound 18h] yielded an IC50 (TPH1) of 263 nM and an inhibition at 1 µM (TPH1) of 78%.
With `CCOC(=O)[C@@H](N)Cc1ccc(-c2csc3c(O[C@H](c4ccc(Cl)cc4-n4ccc(C)n4)C(F)(F)F)ncnc23)cc1.Cl` [Compound 19, ethyl (S)-2-amino-3-(4-(4-((R)-1-(4-chloro-2-(3-methyl-1H-pyrazol-1-yl)phenyl)-2,2,2-trifluoroethoxy)thieno[3,2-d]pyrimidin-7-yl)phenyl)propanoate hydrochloride] the IC50 (TPH1) was 994 nM, the “TPH1 Inhibition (% Inhibition at 1 µM)” value (TPH1) was 60% and the Body weight gain (HFD-fed C57BL/6J mice; 100 mg/kg ip daily for 11 days from start of HFD) was “attenuated body weight gain”. The “Adipocyte size in eWAT and iWAT (histology)” value (HFD-fed C57BL/6J mice; 100 mg/kg ip daily) was “decreased adipocyte size” and the “UCP1 content in iWAT (immunohistochemistry)” value (HFD-fed C57BL/6J mice; 100 mg/kg ip daily) was “higher content of mitochondrial uncoupling protein 1 (UCP1)”.
For `CCOC(=O)[C@@H](N)Cc1ccc(-c2csc3c(O[C@H](c4ccc(Cl)cc4-n4ccc(C)n4)C(F)(F)F)ncnc23)cc1` [Compound 20, ethyl (S)-2-amino-3-(4-(4-((R)-1-(4-chloro-2-(3-methyl-1H-pyrazol-1-yl)phenyl)-2,2,2-trifluoroethoxy)thieno[3,2-d]pyrimidin-7-yl)phenyl)propanoate], the “TPH1 Inhibition (% Inhibition at 1 µM)” value (TPH1; 1 µM) was 79%.
For `CCOC(=O)[C@@H](N)Cc1ccc(-c2csc3c(O[C@H](c4ccc(Cl)cc4-n4ccc(C)n4)C(F)(F)F)ncnc23)cc1` [Compound 21, ethyl (S)-2-amino-3-(4-(4-((R)-1-(4-chloro-2-(3-methyl-1H-pyrazol-1-yl)phenyl)-2,2,2-trifluoroethoxy)thieno[3,2-d]pyrimidin-7-yl)phenyl)propanoate hippurate], the “TPH1 Inhibition (% Inhibition at 1 µM)” value (TPH1; 1 µM) was 92%, the “Body and liver weights” value (HFD-fed C57BL/6J mice; 100 mg/kg oral daily, 6 weeks) was “without significant changes in body and liver weights” and the “Lipid accumulation in liver tissue (H&E, oil red O)” value (HFD-fed C57BL/6J mice; 100 mg/kg oral daily, 6 weeks) was “dramatically decreased lipid accumulation in liver tissue”.
In the case of `Cc1ccn(-c2cc(Cl)ccc2[C@@H](Oc2nc(N)nc3c(-c4ccc(C[C@H](N)C(=O)O)cc4)csc23)C(F)(F)F)n1` [Compound 30], the IC50 (TPH1) is reported as 208 nM and the inhibition at 1 µM (TPH1) is reported as 91%.
For `Nc1nc(OC(c2ccc(-c3cccc(F)c3)cc2)C(F)(F)F)cc(-c2ccc(C[C@H](N)C(=O)O)cc2)n1` (stereo partly drawn) [LP533401, 4-[2-amino-6-[2,2,2-trifluoro-1-(3’-fluoro[1,1’-biphenyl]-4-yl)ethoxy]-4-pyrimidinyl]-L-phenylalanine, reference compound], the “Protection against diet-induced obesity (body weight gain, lipogenesis in adipose tissue)” value [1] is listed as “protect against diet-induced obesity in vivo”.
Work on `NC(Cc1ccc(Cl)cc1)C(=O)O` (centres unmarked) [pCPA, para-chlorophenylalanine, reference compound] yielded an inhibition at 1 µM (TPH1) of under 5%, an inhibition at 100 µM (TPH1; 100 µM compound) of 25% and a Papp at 4 h, 50 µM (PAMPA-BBB permeability) of 1.85 ×10⁻⁶ cm/s. For the same compound, the “Protection against diet-induced obesity (body weight gain, lipogenesis in adipose tissue)” value [1] was “protect against diet-induced obesity in vivo”.

From publication PMC9182086, “Identification of New Non-BBB Permeable Tryptophan Hydroxylase Inhibitors for Treating Obesity and Fatty Liver Disease” (Molecules, 2022)
